According to article PMC7340344 (Journal of medicinal chemistry, 2020):
Structures can show the parent of a compound that is named as a salt.

Molecular target: T1, HAT domain of human p300 (Homo sapiens, UniProt Q09472)
T1 sequence (Q09472 1195-1673): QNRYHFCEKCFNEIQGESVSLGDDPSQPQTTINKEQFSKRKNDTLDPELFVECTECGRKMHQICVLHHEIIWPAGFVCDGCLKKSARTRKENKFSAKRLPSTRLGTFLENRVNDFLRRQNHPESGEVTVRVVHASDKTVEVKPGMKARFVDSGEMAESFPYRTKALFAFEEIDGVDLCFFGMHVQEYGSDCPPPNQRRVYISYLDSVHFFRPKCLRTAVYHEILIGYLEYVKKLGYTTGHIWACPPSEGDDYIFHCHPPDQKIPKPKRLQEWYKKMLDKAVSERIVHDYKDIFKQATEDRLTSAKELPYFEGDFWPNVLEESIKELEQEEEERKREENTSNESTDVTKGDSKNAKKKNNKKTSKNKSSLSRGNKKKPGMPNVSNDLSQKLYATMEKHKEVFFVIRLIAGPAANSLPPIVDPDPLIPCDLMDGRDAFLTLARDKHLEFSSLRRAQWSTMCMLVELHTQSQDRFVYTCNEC
Assay: Inhibition of p300-HAT
Assay type: biochemical
Conditions: not given

| SMILES | IC50 [µM] |
| --- | --- |
| CC(C)(C)c1ccc(-c2cc(CNCC3CCNCC3)oc2-c2ccc(C(C)(C)C)cc2)cc1 [Compound 34, 1-(4,5-bis(4-(tert-Butyl)phenyl)furan-2-yl)-N-(piperidin-4-ylmethyl)methanamine hydrochloride] | 4.9 |
| c1cc(-c2ccc(-c3cc(CNCC4CCNCC4)oc3-c3ccc(-c4ccoc4)cc3)cc2)co1 [Compound 35, 1-(4,5-bis(4-(Furan-3-yl)phenyl)furan-2-yl)-N-(piperidin-4-ylmethyl)methanamine hydrochloride] | 3 |

Same assay, conditions: ratio of p300 HAT IC50 to that of compound 12

| SMILES | activity reduction as compared to 12 |
| --- | --- |
| CC(C)(C)c1ccc(-c2cc(CNC3CCNCC3)sc2-c2ccc(C(C)(C)C)cc2)cc1 [Compound 14, N-((4,5-bis(4-(tert-Butyl)phenyl)thiophen-2-yl)methyl)piperidin-4-amine hydrochloride] | ~ 8 fold |
| CC(C)(C)c1ccc(-c2sc(CNCC3CCNCC3)c(Br)c2-c2ccc(C(C)(C)C)cc2)cc1 [Compound 33, 1-(3-Bromo-4,5-bis(4-(tert-butyl)phenyl)thiophen-2-yl)-N-(piperidin-4-ylmethyl)methanamine hydrochloride] | ~ 3 fold |
| CC(C)(C)c1ccc(-c2cc(CNCC3CCNCC3)sc2-c2ccc(CN)cc2)cc1 [Compound 26, 1-(5-(4-(Aminomethyl)phenyl)-4-(4-(tert-butyl)phenyl)thiophen-2-yl)-N-(piperidin-4-ylmethyl)methanamine hydrochloride] | ~ 3 fold |
| CC(C)(C)c1ccc(-c2cc(CNCCC3CCNCC3)sc2-c2ccc(C(C)(C)C)cc2)cc1 [Compound 15, N-((4,5-bis(4-(tert-Butyl)phenyl)thiophen-2-yl)methyl)-2-(piperidin-4-yl)ethanamine hydrochloride] | ~3 fold |

Same assay, conditions: tested up to 10 μM

| SMILES | inhibitory activity against p300 HAT (in words) |
| --- | --- |
| COc1ccc(-c2cc(CNCC3CCNCC3)sc2-c2ccc(OC)c(OC)c2)cc1OC [Compound 31, 1-(4,5-bis(3,4-Dimethoxyphenyl)thiophen-2-yl)-N-(piperidin-4-ylmethyl)methanamine hydrochloride] | Lack of inhibition |
| CC(C)(C)c1ccc(-c2csc(CNCC3CCNCC3)n2)cc1 [Compound 38, 1-(4-(4-(tert-Butyl)phenyl)thiazol-2-yl)-N-(piperidin-4-ylmethyl)methanamine hydrochloride] | Loss of activity |
| c1cc(-c2cc(CNCC3CCNCC3)sc2-c2ccoc2)co1 [Compound 30, 1-(4,5-di(Furan-3-yl)thiophen-2-yl)-N-(piperidin-4-ylmethyl)methanamine hydrochloride] | very low activity |
| CC(C)(C)c1ccc(-c2csc(C(=O)NCC3CCNCC3)n2)cc1 [Compound 39, 4-(4-(tert-Butyl)phenyl)-N-(piperidin-4-ylmethyl)thiazole-2-carboxamide hydrochloride] | Loss of activity |
| CC(C)(C)c1ccc(-c2cc(CN3CCOCC3)sc2-c2ccc(C(C)(C)C)cc2)cc1 [Compound 19, 4-((4,5-bis(4-(tert-Butyl)phenyl)thiophen-2-yl)methyl)morpholine hydrochloride] | Loss of activity |
| CC(C)(C)c1ccc(-c2sc(C(=O)NCC3CCNCC3)cc2-c2ccc(CN3CCNCC3)cc2)cc1 [Compound 7, 5-(4-(tert-Butyl)phenyl)-4-(4-(piperazin-1-ylmethyl)phenyl)-N-(piperidin-4-ylmethyl)thiophene-2-carboxamide hydrochloride] | almost inactive |
| CCCCc1ccc(-c2cc(CNCC3CCNCC3)sc2-c2ccc(CCCC)cc2)cc1 [Compound 23, 1-(4,5-bis(4-Butylphenyl)thiophen-2-yl)-N-(piperidin-4-ylmethyl)methanamine hydrochloride] | Loss of activity |
